Test results reported in ChEMBL document CHEMBL5126548, “Small-molecule MDM2 inhibitors in clinical trials for cancer therapy” (Eur J Med Chem, 2022).

Columns and labels:
[1] = biological target: Tumour suppressor p53/oncoprotein Mdm2 (Homo sapiens, UniProt Q00987); assay: Inhibition of recombinant human MDM2/p53 interaction; type: protein assay
[2] = Oral bioavailability in Sprague-Dawley rat at 2 mg/kg by LC-MS/MS method; type: ADME, organism-based; details: in vivo
[3] = Oral bioavailability in CD-1 mouse at 5 mg/kg by LC-MS/MS method; type: ADME, organism-based; details: in vivo
[4] = Oral bioavailability in cynomolgus monkey at 2 mg/kg by LC-MS/MS method; type: ADME, organism-based, Macaca fascicularis; details: in vivo
[5] = Oral bioavailability in Beagle dog at 2 mg/kg by LC-MS/MS method; type: ADME, organism-based, Canis lupus familiaris; details: in vivo
[6] = Cmax in CB17SCID mouse at 125 mg/kg, po and measured upto 24 hrs; type: ADME, organism-based; parameters: dose 125 mg/kg, time < 24 hrs, route po; details: in vivo
[7] = AUC in CB17SCID mouse at 125 mg/kg, po and measured upto 24 hrs; type: ADME, organism-based; parameters: dose 125 mg/kg, time < 24 hrs, route po; details: in vivo
[8] = tested on: SJSA-1; assay: animal or person; details: Mus musculus, SJSA-1, po, read-out: TGI
Description: Antitumor activity against human SJSA-1 xenografted Balb/c mouse assessed as tumor growth inhibition at 50 mg/kg,po administered daily by caliper method

[9] = animal or person; details: Homo sapiens, MHM, po, read-out: TGI
Description: Antitumor activity against human MHM xenografted Balb/c mouse assessed as tumor growth inhibition at 50 mg/kg,po administered daily by caliper method

[10] = tested on: IMR-5; assay: Antiproliferative activity against human IMR-5 cells harboring wildtype TP53 assessed as reduction in cell viability and measured upto 72 hrs by XTT assay; type: functional, cell-based; details: IMR-5, 72 h
[11] = tested on: IMR-32; assay: Antiproliferative activity against human IMR-32 cells harboring wildtype TP53 assessed as reduction in cell viability and measured upto 72 hrs by XTT assay; type: functional, cell-based; details: IMR-32, 72 h
[12] = tested on: SH-SY5Y; assay: Antiproliferative activity against human SH-SY5Y cells harboring wildtype TP53 assessed as reduction in cell viability and measured upto 72 hrs by XTT assay; type: functional, cell-based
[13] = tested on: SK-N-SH; assay: Antiproliferative activity against human SK-N-SH cells harboring wildtype TP53 assessed as reduction in cell viability and measured upto 72 hrs by XTT assay; type: functional, cell-based
[14] = Antiproliferative activity against human LA-N-5 cells harboring wildtype TP53 assessed as reduction in cell viability and measured upto 72 hrs by XTT assay; type: functional, cell-based; details: LA-N-5, 72 h
[15] = Antiproliferative activity against human Kelly cells harboring TP53 mutant assessed as reduction in cell viability and measured upto 72 hrs by XTT assay; type: functional, cell-based

Chain of Tumour suppressor p53/oncoprotein Mdm2 (P04637 whole entry): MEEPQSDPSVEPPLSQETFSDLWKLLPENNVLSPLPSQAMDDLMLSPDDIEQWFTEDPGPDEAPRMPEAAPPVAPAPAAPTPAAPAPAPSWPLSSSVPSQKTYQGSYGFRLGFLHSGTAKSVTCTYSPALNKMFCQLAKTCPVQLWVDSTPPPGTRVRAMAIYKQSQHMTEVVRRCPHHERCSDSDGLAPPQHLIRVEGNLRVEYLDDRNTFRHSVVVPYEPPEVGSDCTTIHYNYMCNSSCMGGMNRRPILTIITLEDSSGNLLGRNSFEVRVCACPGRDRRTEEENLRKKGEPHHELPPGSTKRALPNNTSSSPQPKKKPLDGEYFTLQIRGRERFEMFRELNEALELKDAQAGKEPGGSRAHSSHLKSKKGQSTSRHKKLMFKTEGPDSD
Chain of Tumour suppressor p53/oncoprotein Mdm2 (Q00987 whole entry): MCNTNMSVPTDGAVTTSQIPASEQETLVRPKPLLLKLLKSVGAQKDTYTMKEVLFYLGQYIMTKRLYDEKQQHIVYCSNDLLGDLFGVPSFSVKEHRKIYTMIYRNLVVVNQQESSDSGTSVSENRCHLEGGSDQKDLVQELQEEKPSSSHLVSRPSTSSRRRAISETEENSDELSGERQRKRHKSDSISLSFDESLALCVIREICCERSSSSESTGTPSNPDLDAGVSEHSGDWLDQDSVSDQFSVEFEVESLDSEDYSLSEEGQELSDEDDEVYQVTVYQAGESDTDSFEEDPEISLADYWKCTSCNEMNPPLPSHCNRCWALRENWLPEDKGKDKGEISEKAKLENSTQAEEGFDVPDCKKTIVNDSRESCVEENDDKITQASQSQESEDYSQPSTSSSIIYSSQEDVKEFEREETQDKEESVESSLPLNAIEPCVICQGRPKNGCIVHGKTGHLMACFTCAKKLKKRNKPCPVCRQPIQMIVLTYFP

COc1ccccc1-n1nc2c(c1C(C)C)[C@H](c1ccc(Cl)cc1C)N(c1cc(Cl)cc(OCCN(C)C)c1)C2=O
IC50 [1]: 0.00013 µM

CC(C)[C@@H](CS(=O)(=O)C(C)C)N1C(=O)[C@@](C)(CC(=O)O)C[C@H](c2cccc(Cl)c2)[C@H]1c1ccc(Cl)cc1 [NAVTEMADLIN]
bioavailability [2]: > 42% | bioavailability [3]: > 43% | bioavailability [4]: > 44% | bioavailability [5]: 18%

CCC[C@H]1N(C(=O)c2ncccc2C(F)(F)F)CCC[C@@]1(Oc1csc(C(F)(F)F)c1)C(=O)N1CCC(O)(c2ccccc2O[C@H](C)CCC2(C(=O)O)CCC2)CC1
Cmax [6]: 40 µM | AUC at 24 h [7]: 200 µM·h

CCOc1cc(C(C)(C)C)ccc1C1=N[C@@](C)(c2ccc(Cl)cc2)[C@@](C)(c2ccc(Cl)cc2)N1C(=O)N1CCN(CCCS(C)(=O)=O)CC1 [RO-5045337]
inhibition in vivo at 50 mg/kg [8]: 74% | inhibition in vivo at 50 mg/kg [9]: 69%

CC1(C)CCC2(CC1)N[C@H](C(=O)N[C@@H]1CC[C@@H](C(N)=O)OC1)[C@H](c1ccnc(Cl)c1F)[C@]21C(=O)Nc2cc(Cl)ccc21
IC50 [10]: 0.0257 µM | IC50 [11]: 0.0562 µM | IC50 [12]: 0.0177 µM | IC50 [13]: 0.0219 µM | IC50 [14]: 0.0441 µM | IC50 [15]: > 2 µM
